One data set concerns the target T1, PXR (NR1I2) (Homo sapiens, UniProt O75469).
T1 sequence (O75469 1-434): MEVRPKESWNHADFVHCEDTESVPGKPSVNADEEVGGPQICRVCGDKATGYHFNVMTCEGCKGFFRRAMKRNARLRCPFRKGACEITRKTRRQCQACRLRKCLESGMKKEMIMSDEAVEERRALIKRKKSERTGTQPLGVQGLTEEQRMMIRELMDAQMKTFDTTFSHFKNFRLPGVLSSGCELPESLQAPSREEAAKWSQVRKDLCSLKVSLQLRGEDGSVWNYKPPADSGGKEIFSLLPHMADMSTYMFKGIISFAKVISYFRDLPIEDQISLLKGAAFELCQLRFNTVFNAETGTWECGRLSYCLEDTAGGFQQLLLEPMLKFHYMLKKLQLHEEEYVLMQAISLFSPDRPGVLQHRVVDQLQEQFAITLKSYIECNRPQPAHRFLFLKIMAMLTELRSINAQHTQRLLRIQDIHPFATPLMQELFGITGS
Briefly: NVS_NR_hPXR: Human PXR Fluormone PXR (SXR) green (cell-free HTS). Type of data set: binding. A digest of the protocol: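 Responses were normalized to same-plate solvent controls as percent of neutral control. AC50 values came from Hill-equation fits of concentration-response curves.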

A further data set concerns the target T2, PXR Human (NR1I2) (Homo sapiens, UniProt O75469).
T2 sequence (O75469 146-434 limits assumed): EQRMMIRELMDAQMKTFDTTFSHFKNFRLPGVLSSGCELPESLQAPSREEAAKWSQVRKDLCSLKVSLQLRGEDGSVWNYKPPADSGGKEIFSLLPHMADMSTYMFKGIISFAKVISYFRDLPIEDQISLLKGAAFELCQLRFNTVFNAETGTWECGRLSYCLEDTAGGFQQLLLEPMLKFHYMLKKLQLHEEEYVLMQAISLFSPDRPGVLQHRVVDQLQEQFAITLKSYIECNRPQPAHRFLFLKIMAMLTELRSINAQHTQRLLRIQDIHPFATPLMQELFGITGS
Description: NCGC_PXR_Agonist_human: GAL4 BLAM Reporter gene assay: PXR Human. The data set is classed as cell-based. Particulars: agonist mode. An outline of the steps:
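Cell-based GAL4 beta-lactamase reporter assays run at NIH Chemical Genomics Center as part of Tox21. Curve fits required R^2 ≥0.5; values where only the highest concentration exceeded 50% activity were excluded.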

For data set [1], the target named is T3, PPARG (peroxisome proliferator-activated receptor gamma) (Homo sapiens, UniProt P37231).
T3 construct: expressed in transfected cells; host or cells: HepG2
T3 sequence (P37231 1-505): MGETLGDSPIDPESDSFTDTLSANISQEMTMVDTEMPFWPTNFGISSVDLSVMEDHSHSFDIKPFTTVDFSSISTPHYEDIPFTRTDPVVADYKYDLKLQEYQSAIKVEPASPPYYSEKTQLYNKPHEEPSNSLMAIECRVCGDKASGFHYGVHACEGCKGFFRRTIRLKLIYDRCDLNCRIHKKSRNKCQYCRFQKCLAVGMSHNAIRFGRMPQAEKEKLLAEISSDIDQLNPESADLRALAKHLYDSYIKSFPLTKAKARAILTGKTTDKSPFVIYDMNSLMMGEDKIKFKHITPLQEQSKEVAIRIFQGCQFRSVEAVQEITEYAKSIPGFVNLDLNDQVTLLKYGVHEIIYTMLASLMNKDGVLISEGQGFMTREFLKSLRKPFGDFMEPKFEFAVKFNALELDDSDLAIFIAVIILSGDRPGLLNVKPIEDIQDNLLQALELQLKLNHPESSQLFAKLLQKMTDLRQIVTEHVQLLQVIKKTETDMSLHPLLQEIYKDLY
Briefly: ATG_PPARg_TRANS: Factorial reporter gene assay (HepG2). The data set is classed as cell-based. Particulars: HepG2. An outline of the steps: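 Seven concentrations per chemical, three-fold dilutions down from the MTC, were tested in HepG2 hepatoma cells. Those cells carried a multiple reporter transcription unit library, read either as cis transcription-factor-site reporters or as a trans mammalian one-hybrid panel for nuclear receptors.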
(In a reporter assay the amount or activity of a reporter protein is the signal.)

For data set [2], the target named is T4, ESR1 (estrogen receptor 1) (Homo sapiens, UniProt P03372).
T4 construct: expressed in transfected cells; host or cells: HepG2
T4 sequence (P03372 whole entry): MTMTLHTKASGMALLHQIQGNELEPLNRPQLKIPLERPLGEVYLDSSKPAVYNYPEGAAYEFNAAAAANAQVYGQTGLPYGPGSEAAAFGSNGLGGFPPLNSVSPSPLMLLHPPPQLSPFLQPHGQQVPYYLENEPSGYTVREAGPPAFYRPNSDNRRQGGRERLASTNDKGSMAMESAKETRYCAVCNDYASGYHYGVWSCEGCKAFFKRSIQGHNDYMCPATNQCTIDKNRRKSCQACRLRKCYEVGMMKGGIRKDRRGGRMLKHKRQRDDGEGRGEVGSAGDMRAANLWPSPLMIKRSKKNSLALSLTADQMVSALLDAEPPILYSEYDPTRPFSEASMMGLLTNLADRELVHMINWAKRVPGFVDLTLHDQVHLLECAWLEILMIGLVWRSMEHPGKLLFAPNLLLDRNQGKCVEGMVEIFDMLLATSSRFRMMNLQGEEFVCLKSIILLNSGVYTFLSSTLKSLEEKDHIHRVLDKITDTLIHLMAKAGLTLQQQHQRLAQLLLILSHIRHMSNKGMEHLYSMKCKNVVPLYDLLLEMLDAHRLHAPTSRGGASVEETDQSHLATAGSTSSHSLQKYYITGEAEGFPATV
Briefly: ATG_ERE_CIS: Factorial reporter gene assay (HepG2). The data set is classed as cell-based. Particulars: HepG2. An outline of the steps:
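HepG2 cells transfected with multiplexed reporter libraries: cis-acting binding-site reporters (CIS) and a one-hybrid nuclear-receptor trans system (TRANS). Chemicals tested at seven concentrations, starting at the maximum tolerated concentration with three-fold serial dilutions.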

The compound `CCN(CC)C(=O)C(C)Oc1cccc2ccccc12` (stereo not shown) [row 219] registered an NVS_NR_hPXR at PXR (NR1I2) of 5.644. This compound showed an NCGC_PXR_Agonist_human on PXR Human (NR1I2) of 6.32. The ATG_PPARg_TRANS in data set [1] is given as 4.301. This compound displayed an ATG_ERE_CIS in data set [2] of 4.481.

Source of the values: PMC3038857, “Using Nuclear Receptor Activity to Stratify Hepatocarcinogens” (PLoS ONE, 2011).
